Results published in patent publication US7300546B2, “Cellulose fiber having improved biostability and the resulting products” (Weyerhaeuser Company, priority 2000, dated 2007).

System: cellulose fungal decay
Experiment: Inground testing of cement-treated pulp sheets, subjective visual rating for deterioration (biodurability)
Parameters: species or system fungi
Conditions: for biological protection: summary statement in Example 2
Protocol: Samples for testing were prepared by obtaining unbleached mixed conifer kraft pulp sheets produced in an interior British Columbia mill. […] Solutions of various biocides were made up so that the desired ultimate concentration of active material would be obtained by spraying each sample portion of pulp sheet with about 1 g of the biocidal solution per gram of pulp. […] Subsequently the treated sheets were reslurried in water having a pH ˜12 obtained from a cement board manufacturing facility and refined to a Canadian Standard Freeness (CSF) level of 450 mL. All refining was done in a pilot scale Model 202 Claflin refiner (available from Bolton-Emerson, Inc., Lawrence, Mass.). The treated and refined pulp was dewatered by centrifuging to a consistency of about 30% and then pin fluffed to ensure uniformity.
Treatments included copper sulfate at concentrations of 0.1, 0.3, and 0.5% Cu w/w based on dry pulp; zinc sulfate at concentrations of 0.1%, 0.3%, and 0.6% Zn; 0.2% propiconazole emulsion; didecyldimethylammonium chloride (DDAC) 0.2%, 0.5%; and 1.0%, and 1.0% DDAB. Treated fibers were also made using 1.0% DDAC with 0.05%, 0.10%, and 0.2% Cu added as copper sulfate. All concentrations are on a weight/weight basis.
Samples of 30 g of the treated pulps were reslurried in water and formed into sheets in an 8×8 inch (203×203 mm) sheet. The sheets were pressed to remove excess moisture then air dried. Each sheet was then cut in half and dipped for 30 seconds in a slurry of one part Portland cement in three parts by weight water. The coated and impregnated sheets were removed and drained, allowed to cure for two days wet, and then air dried. Each 4×8 inch ([…] mm) cement treated sheet was then enclosed in a 20 mesh stainless steel screen and half buried in the ground at a test site at Hilo, Hi. Samples were then removed after three month, six month, nine month, and twelve month periods for examination. Exposed sheets were assigned a subjective rating for deterioration based on visual observation (3=sound and 0=complete deterioration). The exposed sheets were also examined microscopically to determine the presence of fungal mycelium and cell wall deterioration. […] 1

CCCCCCCCCC[N+](C)(C)CCCCCCCCCC.[Br-] [DDAB, didecyldimethylammonium bromide]
below ground protection (DDAB at 1% (lower concentrations not tested)): effective below ground protection

CCCCCCCCCC[N+](C)(C)CCCCCCCCCC.[Cl-] [DDAC, didecyldimethylammonium chloride]
below ground protection (DDAC at 0.5% or greater): effective below ground protection

O=S(=O)([O-])[O-].[Zn+2] [Zinc compounds, zinc sulfate]
decay protection (at any concentration tested): did not give effective decay protection | biological protection: poor

O=S(=O)([O-])[O-].[Cu+2] [copper, copper sulfate]
reducing cellulose fungal decay (after the one year underground tests): effective in reducing cellulose fungal decay | below ground protection (copper at concentrations of 0.3% or greater): effective below ground protection

CCCC1COC(Cn2cncn2)(c2ccc(Cl)cc2Cl)O1 (centres unmarked) [propiconazole]
decay protection (at 0.2%): did not give effective decay protection | biological protection: poor
